Read-outs that look alike come from different tables or passages of the source.
Columns and labels:
[1] = test system: MSS colon cancers; conditions: drug of choice for MSS colon cancers; cited from earlier work
[2] = amide bond, 15-membered ring, DEPBT/HATU/TBTU/DIEA, THF/MeCN/CH2Cl2 2:2:1, 7.0 mM, 2 steps
[3] = test system: virus-encoded topoisomerase I; conditions: poxvirus MCV; Hwang et al. 1999; cited from earlier work

O=c1[nH]cc(F)c(=O)[nH]1 [5-fluorouracil]
IC50 [1]: 5 µM

CC(C)C[C@@H]1NC(=O)[C@H](Cc2ccccc2)NC(=O)[C@H](CC(C)C)NC(=O)[C@H](C(C)C)NC(=O)[C@H](CC(C)C)NC1=O [cyclo[-Phe-Leu-Val-Leu-Leu-]]
ring closure, isolated yield ([2]; from H-Leu-Leu-Val-Leu-Phe-OH?): 65%

CC(C)C[C@@H]1NC(=O)[C@H](Cc2ccccc2)NC(=O)[C@H](CC(C)C)NC(=O)[C@H](C(C)C)NC(=O)[C@@H](CC(C)C)NC1=O [cyclo[-Phe-Leu-Val-Xaa-Leu-] (Xaa-4 DLeu)]
ring closure, isolated yield ([2]; from H-Leu-dLeu-Val-Leu-Phe-OH?): 53%

CC(C)C[C@@H]1NC(=O)[C@H](C(C)C)NC(=O)[C@@H](CC(C)C)NC(=O)[C@@H](CC(C)C)NC(=O)[C@H](Cc2ccccc2)NC1=O [cyclo[-Phe-Leu-Val-Xaa-Xaa-] (Xaa-4 DLeu, Xaa-5 DLeu)]
ring closure, isolated yield ([2]; from H-dLeu-dLeu-Val-Leu-Phe-OH?): 35%

CC(C)C[C@@H]1NC(=O)[C@H](C(C)C)NC(=O)[C@H](CC(C)C)N(C)C(=O)[C@@H](CC(C)C)NC(=O)[C@H](Cc2ccccc2)NC1=O [cyclo[-Phe-Leu-Val-Xaa-Xaa-] (Xaa-4 NMeLeu, Xaa-5 DLeu)]
ring closure, isolated yield ([2]; from H-dLeu-MeLeu-Val-Leu-Phe-OH?): 40%

CC(C)C[C@@H]1NC(=O)[C@H](Cc2ccccc2)NC(=O)[C@H](CC(C)C)NC(=O)[C@@H](C(C)C)NC(=O)[C@H](CC(C)C)NC1=O [cyclo[-Phe-Leu-Xaa-Leu-Leu-] (Xaa-3 DVal)]
ring closure, isolated yield ([2]; from H-Leu-Leu-dVal-Leu-Phe-OH?): 65%

CC(C)C[C@@H]1NC(=O)[C@H](Cc2ccccc2)NC(=O)[C@@H](CC(C)C)NC(=O)[C@H](C(C)C)NC(=O)[C@H](CC(C)C)NC1=O [cyclo[-Phe-Xaa-Val-Leu-Leu-] (Xaa-2 DLeu)]
ring closure, isolated yield ([2]; from H-Leu-Leu-Val-dLeu-Phe-OH?): 85%

CC(C)C[C@@H]1NC(=O)[C@H](Cc2ccccc2)NC(=O)[C@@H](CC(C)C)N(C)C(=O)[C@H](C(C)C)NC(=O)[C@H](CC(C)C)NC1=O [cyclo[-Phe-Xaa-Val-Leu-Leu-] (Xaa-2 DNMeLeu)]
ring closure, isolated yield ([2]; from H-Leu-Leu-Val-dMeLeu-Phe-OH?): 81%

CC(C)C[C@@H]1NC(=O)[C@H](CC(C)C)NC(=O)[C@@H](Cc2ccccc2)NC(=O)[C@H](CC(C)C)NC(=O)[C@H](C(C)C)NC1=O [cyclo[-Xaa-Leu-Val-Leu-Leu-] (Xaa-1 DPhe)]
ring closure, isolated yield ([2]; from H-Leu-Leu-Val-Leu-dPhe-OH?): 39%

CC(C)C[C@@H]1NC(=O)[C@H](CC(C)C)NC(=O)[C@@H](Cc2ccccc2)NC(=O)[C@@H](CC(C)C)NC(=O)[C@H](C(C)C)NC1=O [cyclo[-Xaa-Xaa-Val-Leu-Leu-] (Xaa-1 DPhe, Xaa-2 DLeu)]
ring closure, isolated yield ([2]; from H-Leu-Leu-Val-dLeu-dPhe-OH?): 37%

Sansalvamide A [San A]
inhibition of topoisomerase I [3]: inhibitor

Source: US20090264345A1, “MACROCYCLIC PEPTIDES AND METHODS FOR MAKING AND USING THEM” (priority 2006, published 2009)
